Measurements reported in patent US20230321261A1, “AXL-SPECIFIC ANTIBODY-DRUG CONJUGATES FOR CANCER TREATMENT” (GENMAB A/S, priority 2016, published 2023).
Values joined by “and” are separate entries in the source; they are usually repeats but may differ in a detail not shown here. Equal values may be shown once.

Legend:
MAP4K5 (KHS1) = MAP4K5 (KHS1) (Homo sapiens, UniProt Q9Y4K4); conditions: Bollag et al., 2010; read-out: Primary Target(s) (IC50): MAP4K5 (KHS1); cited from earlier work
C-Raf/BRAF/BRAF V600E = conditions: read-out: Primary Target(s) (IC50): C-Raf/BRAF/BRAF V600E; Mordant et al., 2010; cited from earlier work
MEK½ = tested on: T1, MEK½; conditions: Pheneger et al., 2006; read-out: Primary Target(s) (IC50): MEK½; cited from earlier work
T1 construct: other: Pheneger et al., 2006

SKMEL2 = experiment: NRAS mutant melanoma cell viability (CellTiter-Glo); type: cell-based, human
SKMEL2R = experiment: as above; type: cell-based, human
M019R = experiment: Patient-derived melanoma culture viability (CellTiter-Glo); type: cell-based, human
SKMEL147 tumors = experiment: SKMEL147 melanoma xenograft model; type: in vivo, NMRI nude mice
A431 cells = experiment: Antibody-dependent cell-mediated cytotoxicity (51Cr release); type: cell-based, human; conditions: concentrations up to 10 µg/mL; PBMC effector to target ratio 100:1
Protocol: The ability of anti-AXL antibodies to induce ADCC of A431 epidermoid carcinoma cells was determined as explained below. As effector cells, peripheral blood mononuclear cells from healthy volunteers (UMC Utrecht, The Netherlands) were used.
A431 cells were collected (5×10^6 cells) in culture medium (RPMI 1640 culture medium supplemented with 10% fetal calf serum (FSC)), to which 100 µCi ^51Cr (Chromium-51; Amersham Biosciences Europe GmbH, Roosendaal, The Netherlands) had been added, and the mixture was incubated in a 37° C. water bath for 1 hour (hr) while shaking. After washing of the cells (twice in PBS, 1200 rpm, 5 min), the cells were resuspended in RPMI1640/10% FSC and counted by trypan blue exclusion. […]
Peripheral blood mononuclear cells (healthy volunteers, UMC Utrecht, Utrecht, The Netherlands) were isolated from 45 mL of freshly drawn heparin blood by Ficoll (Bio Whittaker; lymphocyte separation medium, cat 17-829E) according to the manufacturer’s instructions. After resuspension of cells in RPMI1640/10% FSC, cells were counted by trypan blue exclusion and diluted to a density of 1×10^7 cells/mL.
50 µl of ^51Cr-labeled targets cells were pipetted into 96-well plates, and 50 µl of antibody were added, diluted in RPMI1640/10% FSC (3-fold dilutions at final concentrations range 0.01-10 µg/mL). […] The percentage specific lysis was calculated as follows: […]

SKMEL147 = experiment: Melanoma cell viability (CellTiter-Glo); type: cell-based, human; conditions: for HuMax-AXL-ADC sensitivity: 0.0001 to 10 µg/mL, 5 days
PAXF1657 tumors = experiment: PAXF1657 pancreas cancer PDX model; type: in vivo, NMRI nu/nu mice; conditions: day 0
A431 tumors = experiment: A431 xenograft model (high Gas6); type: in vivo, SCID mice; conditions: 3 mg/kg
Protocol: (§1) Tumor induction was performed by subcutaneous injection of 5 × 10^6 A431 or LCLC-103H tumor cells (both obtained from Leibniz-Institut - Deutsche Sammlung von Mikroorganismen und Zellkulturen GmbH (DSMZ)) in 200 µL PBS in the right flank of female SCID mice. Treatment was started 14-21 days after tumor cell inoculation, when the average tumor size was >100-200 mm^3 and distinct tumor growth was observed. Mice received a single injection or a total of 4 biweekly intraperitoneal injections with IgG1-AXL-vcMMAE ADCs or control antibody (unconjugated IgG1-b12), as indicated. Tumor volume was determined at least two times per week. Tumor volumes (mm^3) were calculated from caliper (PLEXX) measurements as: 0.52 × (length) × (width)^2.

[1] = tested on: LCLC-103H xenograft tumors; experiment: LCLC-103H xenograft model; type: in vivo, SCID mice
Protocol: 5 × 10^6 LCLC-103H (large cell lung carcinoma) tumor cells (obtained from Leibniz-Institut DSMZ-Deutsche Sammlung von Mikroorganismen und Zellkulturen GmbH (DSMZ)) in 200 µL PBS were injected subcutaneously in the right flank of female SCID mice. Starting 14-21 days after tumor cell inoculation, when the average tumor size was >100-200 mm^3 and distinct tumor growth was observed, a single injection with 1 mg/kg (20 µg/mouse) IgG1-AXL-vcMMAE antibodies (as described in Supplementary Example 1) or control (unconjugated IgG1-b12) was given intraperitoneally (100 µL/mouse). Tumor volume was determined at least two times per week. Tumor volumes (mm^3) were calculated from caliper (PLEXX) measurements as: 0.52 × (length) × (width)^2.
as §1, with “Mice received a single injection or a total of 4 biweekly intraperitoneal injections with IgG1-AXL-vcMMAE ADCs or control antibody (unconjugated IgG1-b12), as indicated.” left out

COLO679 = experiment: Melanoma cell viability (CellTiter-Glo); type: cell-based, human; conditions: 0.0001 to 10 µg/mL, 5 days
A875 = experiment: Melanoma cell viability (CellTiter-Glo); type: cell-based, human; conditions: for HuMax-AXL-ADC sensitivity: 0.0001 to 10 µg/mL, 5 days
M016 = experiment: Patient-derived melanoma culture viability (CellTiter-Glo); type: cell-based, human; conditions: for HuMax-AXL-ADC sensitivity: 8 days
SKMEL28 = experiment: Melanoma cell viability (CellTiter-Glo); type: cell-based, human; conditions: for HuMax-AXL-ADC sensitivity: 0.0001 to 10 µg/mL, 5 days
SKMEL28R = experiment: Melanoma cell viability (CellTiter-Glo); type: cell-based, human; conditions: for HuMax-AXL-ADC sensitivity: 0.0001 to 10 µg/mL, 5 days
M082 = experiment: Patient-derived melanoma culture viability (CellTiter-Glo); type: cell-based, human; conditions: for HuMax-AXL-ADC sensitivity: 8 days
FM6 = experiment: NRAS mutant melanoma cell viability (CellTiter-Glo); type: cell-based, human
A375R = experiment: Melanoma cell viability (CellTiter-Glo); type: cell-based, human
BLM = experiment: NRAS mutant melanoma cell viability (CellTiter-Glo); type: cell-based, human
C-Raf = C-Raf (Homo sapiens, UniProt P04049); conditions: literature reference per drug in Table 1; read-out: Primary Target(s) (IC50): C-Raf (also printed Raf-1, C-Raf-1, C-RAF); cited from earlier work
MEK1 = MEK1 (Homo sapiens, UniProt Q02750); conditions: read-out: Primary Target(s) (IC50): MEK1; cited from earlier work
[2] = 4 mg/kg i.v. on day 12 and day 19 after tumor cell injection

C-Raf, sequence (P04049 whole entry): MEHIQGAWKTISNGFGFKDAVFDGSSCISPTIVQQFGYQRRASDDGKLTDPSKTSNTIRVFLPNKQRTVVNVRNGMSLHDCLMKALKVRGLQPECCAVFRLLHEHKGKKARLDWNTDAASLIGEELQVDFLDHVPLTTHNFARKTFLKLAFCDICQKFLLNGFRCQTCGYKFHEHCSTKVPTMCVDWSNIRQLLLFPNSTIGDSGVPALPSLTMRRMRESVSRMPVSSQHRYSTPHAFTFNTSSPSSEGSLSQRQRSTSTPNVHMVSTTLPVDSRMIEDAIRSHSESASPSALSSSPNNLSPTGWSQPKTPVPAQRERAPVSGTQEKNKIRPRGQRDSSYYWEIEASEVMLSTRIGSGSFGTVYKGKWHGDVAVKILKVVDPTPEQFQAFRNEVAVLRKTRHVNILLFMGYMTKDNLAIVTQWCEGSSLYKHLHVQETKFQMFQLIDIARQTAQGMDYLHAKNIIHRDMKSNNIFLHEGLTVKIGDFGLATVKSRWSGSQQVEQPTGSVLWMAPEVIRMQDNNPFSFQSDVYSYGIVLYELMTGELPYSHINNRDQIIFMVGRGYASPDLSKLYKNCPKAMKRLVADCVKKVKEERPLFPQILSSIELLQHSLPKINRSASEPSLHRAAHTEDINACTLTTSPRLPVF
MAP4K5 (KHS1), sequence (Q9Y4K4 whole entry, species assumed): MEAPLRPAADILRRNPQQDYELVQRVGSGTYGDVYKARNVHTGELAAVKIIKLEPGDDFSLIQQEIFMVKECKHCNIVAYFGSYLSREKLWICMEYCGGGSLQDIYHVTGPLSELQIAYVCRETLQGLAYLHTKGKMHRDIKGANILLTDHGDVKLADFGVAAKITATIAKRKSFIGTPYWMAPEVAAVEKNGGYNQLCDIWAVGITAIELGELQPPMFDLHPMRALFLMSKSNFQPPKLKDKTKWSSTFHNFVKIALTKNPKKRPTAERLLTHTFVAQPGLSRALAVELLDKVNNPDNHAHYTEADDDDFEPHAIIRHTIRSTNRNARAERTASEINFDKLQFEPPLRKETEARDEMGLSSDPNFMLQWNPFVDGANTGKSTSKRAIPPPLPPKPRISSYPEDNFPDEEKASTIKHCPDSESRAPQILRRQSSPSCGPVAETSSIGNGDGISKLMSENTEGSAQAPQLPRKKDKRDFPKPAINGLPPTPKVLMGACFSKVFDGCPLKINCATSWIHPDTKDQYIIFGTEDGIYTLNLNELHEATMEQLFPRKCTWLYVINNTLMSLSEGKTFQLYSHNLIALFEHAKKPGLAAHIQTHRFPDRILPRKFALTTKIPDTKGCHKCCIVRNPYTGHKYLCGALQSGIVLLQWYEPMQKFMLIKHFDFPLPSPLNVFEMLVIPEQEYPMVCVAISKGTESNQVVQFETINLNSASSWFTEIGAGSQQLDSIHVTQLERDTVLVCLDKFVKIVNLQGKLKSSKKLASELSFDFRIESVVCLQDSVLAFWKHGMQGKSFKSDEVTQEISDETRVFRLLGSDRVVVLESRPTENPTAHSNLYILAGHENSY
MEK1, sequence (Q02750 whole entry): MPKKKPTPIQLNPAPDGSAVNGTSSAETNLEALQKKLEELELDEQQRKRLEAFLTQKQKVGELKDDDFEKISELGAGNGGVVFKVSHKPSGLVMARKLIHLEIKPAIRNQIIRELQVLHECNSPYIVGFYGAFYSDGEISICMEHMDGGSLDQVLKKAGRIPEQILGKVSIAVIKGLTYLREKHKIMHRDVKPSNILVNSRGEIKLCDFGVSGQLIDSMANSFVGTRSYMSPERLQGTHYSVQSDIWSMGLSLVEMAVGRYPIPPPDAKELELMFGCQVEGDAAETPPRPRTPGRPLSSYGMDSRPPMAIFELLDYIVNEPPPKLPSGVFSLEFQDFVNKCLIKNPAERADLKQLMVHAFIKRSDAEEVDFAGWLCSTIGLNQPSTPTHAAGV

In the case of `CCCS(=O)(=O)Nc1ccc(F)c(C(=O)c2c[nH]c3ncc(-c4ccc(Cl)cc4)cc23)c1F` [Vemurafenib, N-[3-[[5-(4-chlorophenyl)-1H-pyrrolo[2,3-b]pyridin-3-yl]carbonyl]-2,4-difluorophenyl]-1-propanesulfonamide], the IC50 (MAP4K5 (KHS1)) is given as 51 nM.

For `Cn1c(Nc2ccc(C(F)(F)F)cc2)nc2cc(Oc3ccnc(-c4ncc(C(F)(F)F)[nH]4)c3)ccc21` [RAF265, 1-methyl-5-[2-[5-(trifluoromethyl)-1H-imidazol-2-yl]pyridin-4-yl]oxy-N-[4-(trifluoromethyl)phenyl]benzimidazol-2-amine], the IC50 (C-Raf/BRAF/BRAF V600E) is given as 3 to 60 nM.

In the case of `Cn1cnc2c(F)c(Nc3ccc(Br)cc3F)c(C(=O)NOCCO)cc21` [Binimetinib, 1H-Benzimidazole-6-carboxamide, 5-[(4-bromo-2-fluorophenyl)amino]-4-fluoro-N-(2-hydroxyethoxy)-1-methyl-], the IC50 (MEK½) is given as ~12 nM and 12 nM.

For `CC(=O)Nc1cccc(-n2c(=O)n(C3CC3)c(=O)c3c(Nc4ccc(I)cc4F)n(C)c(=O)c(C)c32)c1` [Trametinib, N-(3-(3-cyclopropyl-5-(2-fluoro-4-iodophenylamino)-6,8-dimethyl-2,4,7-trioxo-3,4,6,7-tetrahydropyrido[4,3-d]pyrimidin-1(2H)-yl)phenyl)acetamide], the trametinib sensitivity (SKMEL2) was “sensitive”, the trametinib sensitivity (SKMEL2R) was “insensitive” and the “drug sensitivity in vitro: trametinib sensitivity” value (M019R; M019R, 8 days) was “insensitive”.

With “IgG1-AXL-107: AXL-specific human IgG1,κ antibody, VH SEQ ID NO:1, VL SEQ ID NO:2, Ig1 domain binding” the “anti-tumor activity in the SKMEL147 melanoma xenograft model” value (SKMEL147 tumors; [2]) was “did not show tumor growth inhibition” and the “ADCC in A431 cells (percentage specific lysis)” value (A431 cells) was “did not induce significant ADCC”.

For IgG1-AXL-107-vcMMAE, the HuMax-AXL-ADC sensitivity (SKMEL147) was “sensitive”, the HuMax-AXL-ADC sensitivity (SKMEL147; listed as HuMax-AXL-ADC) was “Sensitive” and the “growth of PAXF1657 tumors compared to the control group” value (PAXF1657 tumors; 2 mg/kg i.v.) was “significantly reduced the growth”. The “growth of PAXF1657 tumors” value (PAXF1657 tumors; 4 mg/kg i.v.) was “induced tumor regression”, the “anti-tumor activity in the A431 xenograft model” value (A431 tumors) was “growth inhibition” and the “anti-tumor activity in the LCLC-103H xenograft model” value ([1]; 1 mg/kg (Example 13, FIG. 14B)) was “regression”. The “anti-tumor activity in established SC LCLC-103H tumors” value ([1]; single injection 1 mg/kg intraperitoneally (Example 9)) was “tumor regression”, the “anti-tumor activity in the SKMEL147 melanoma xenograft model” value (SKMEL147 tumors; 2 mg/kg i.v. on day 12 and day 19 after tumor cell injection) was “tumor growth inhibition” and the “day until which tumor regression lasted” value (SKMEL147 tumors; 4 mg/kg) was roughly 50 days. For the same compound, the “anti-tumor activity in the SKMEL147 melanoma xenograft model” value (SKMEL147 tumors; [2]) was “strong tumor regression”, the “anti-tumor activity in the SKMEL147 melanoma xenograft model” value (SKMEL147 tumors; 4 mg/kg i.v. on day 12 and day 19 after tumor cell injection, listed as HuMax-AXL-ADC) was “profound anti-tumor effect” and the “effect of retreatment after tumor regrowth” value (SKMEL147 tumors; single dose of 4 mg/kg on day 55, n=4) was “tumor regression in all four mice”. For the same compound, the HuMax-AXL-ADC sensitivity (COLO679) was “did not show changes in viability”, the HuMax-AXL-ADC sensitivity (COLO679; listed as HuMax-AXL-ADC) was “Resistant” and the HuMax-AXL-ADC sensitivity (A875) was “sensitive”. For the same compound, the HuMax-AXL-ADC sensitivity (A875; listed as HuMax-AXL-ADC) was “Sensitive”, the HuMax-AXL-ADC sensitivity (M016) was “sensitive” and the HuMax-AXL-ADC sensitivity (M016; listed as HuMax-AXL-ADC) was “Sensitive”. The HuMax-AXL-ADC sensitivity (SKMEL28) was “did not show changes in viability”, the HuMax-AXL-ADC sensitivity (SKMEL28; listed as HuMax-AXL-ADC) was “Resistant” and the HuMax-AXL-ADC sensitivity (SKMEL28R) was “sensitive”. The HuMax-AXL-ADC sensitivity (SKMEL28R; listed as HuMax-AXL-ADC) was “Sensitive”, the HuMax-AXL-ADC sensitivity (M082) was “did not show a different response” and the HuMax-AXL-ADC sensitivity (M082; listed as HuMax-AXL-ADC) was “Insensitive”.

With `CCCS(=O)(=O)Nc1ccc(F)c(C(=O)c2c[nH]c3ncc(Cl)cc23)c1F` [PLX4720, N-(3-(5-chloro-1H-pyrrolo[2,3-b]pyridine-3-carbonyl)-2,4-difluorophenyl)propane-1-sulfonamide] the PLX4720 sensitivity (SKMEL147) was “resistant”, the PLX4720 sensitivity (FM6) was “insensitive” and the PLX4720 sensitivity (SKMEL2) was “insensitive”. The PLX4720 sensitivity (SKMEL2R) was “insensitive”, the PLX4720 sensitivity (A375R) was “resistant” and the PLX4720 sensitivity (BLM) was “insensitive”. For the same compound, the PLX4720 sensitivity (A875) was “sensitive”, the PLX4720 sensitivity (M016) was “resistant” and the PLX4720 sensitivity (SKMEL28) was “sensitive”. For the same compound, the PLX4720 sensitivity (SKMEL28R) was “resistant”, the PLX4720 sensitivity (M019R; M019R (Table 16)) was “resistant” and the “drug sensitivity in vitro: PLX4720 sensitivity” value (M019R; M019R, 8 days) was “insensitive”. The PLX4720 sensitivity (M082) was “resistant”.

For `CN(C)CCOc1ccc(-c2nc(-c3ccncc3)c(-c3ccc4c(c3)CC/C4=N\O)[nH]2)cc1` [SB590885, (E)-5-(2-(4-(2-(dimethylamino)ethoxy)phenyl)-4-(pyridin-4-yl)-1H-imidazol-5-yl)-2,3-dihydroinden-1-one oxime], the IC50 (C-Raf) is listed as 1.72 nM.

For `O=C(c1ccc(F)c(F)c1Nc1ccc(I)cc1F)N1CC(O)([C@@H]2CCCCN2)C1` [Cobimetinib, [3,4-difluoro-2-[(2-fluoro-4-iodophenyl)amino]phenyl][3-hydroxy-3-(2S)-2-piperidinyl-1-azetidinyl]-methanone], the IC50 (MEK1) is listed as roughly 4.2 nM.
